{"source": "patent US20210024756A1", "about": "“STABILIZED COPPER GLASS” (CORNING INCORPORATED, priority 2018, published 2021)", "test_system": "E. coli", "experiment": "Minimum Inhibition Concentration, bacterial recovery grading", "type": "cell-based", "set-up": "key: −: No bacterial recovery.; +: Trace of contamination (<10colonies).; ++: Light contamination (>100 colonies).; +++: Heavy contamination (continuous smear of growth)", "conditions": "E. coli OD 0.441, 2.68 × 10^8 cell/mL"}
{"substance": "thiourea [Thiourea Ctrl]", "values": [{"measurement": "Bacterial growth (Minimum Inhibition Concentration)", "setting": "0.0001 ppm (mg/L)", "result": "+++"}, {"measurement": "Bacterial growth (Minimum Inhibition Concentration)", "setting": "0.001 ppm (mg/L)", "result": "+++"}, {"measurement": "Bacterial growth (Minimum Inhibition Concentration)", "setting": "0.01 ppm (mg/L)", "result": "+++"}, {"measurement": "Bacterial growth (Minimum Inhibition Concentration)", "setting": "0.1 ppm (mg/L)", "result": "+++"}, {"measurement": "Bacterial growth (Minimum Inhibition Concentration)", "setting": "1 ppm (mg/L)", "result": "+++"}, {"measurement": "Bacterial growth (Minimum Inhibition Concentration)", "setting": "10 ppm (mg/L)", "result": "+++"}, {"measurement": "Bacterial growth (Minimum Inhibition Concentration)", "setting": "100 ppm (mg/L)", "result": "+++"}, {"measurement": "Bacterial growth (Minimum Inhibition Concentration)", "setting": "1000 ppm (mg/L)", "result": "+++"}, {"measurement": "Bacterial growth (Minimum Inhibition Concentration)", "setting": "10000 ppm (mg/L)", "result": "+++"}, {"measurement": "Bacterial growth (Minimum Inhibition Concentration)", "setting": "100000 ppm (mg/L)", "result": "+++"}, {"measurement": "Bacterial growth (Minimum Inhibition Concentration)", "setting": "1000000 ppm (mg/L)", "result": "−"}]}
